Source: patent publication US10653710B2, “Combination therapy for treating malignancies” (Agios Pharmaceuticals, Inc., priority 2015, dated 2020)
Converted amounts (≈) assume the structure as drawn. Where two headings read alike, the source gives them in different places.

Legend:
TF1-IDH1^R132H cells [1] = assay: EPO differentiation assay, cell pellet color evaluation (hemoglobinization assay); format: cell-based; conditions: concurrent schedule; COMPOUND 2 0.2 and 1.0 μM; AZA up to 1 uM
Text: (§1) EPO differentiation assay in TF1-IDH1^R132H cells. […] Endpoints assessed assays were: cell pellet color evaluation (hemoglobinization assay); HBG and KLF1 RNA by RT-qPCR; CD235a-positive cell populations by flow cytometry (differentiation markers); and Growth and apoptosis by IncuCyte Zoom real-time imaging.

TF1-IDH1^R132H cells [2] = assay: HBG and KLF1 RNA by RT-qPCR in EPO differentiation assay; format: cell-based; conditions: concurrent schedule; for increase in HBG gene expression: COMPOUND 2 0.2 μM, AZA 1.0 μM, single agents or combined
Method: EPO differentiation assay in TF1-IDH1^R132H cells. […] Cells were treated with vehicle, AZA alone, COMPOUND 2 alone, or the combination of AZA+COMPOUND 2. In the sequential schedule, cells were pre-treated with AZA for three days before addition of COMPOUND 2. In the concurrent schedule, cells were co-treated with AZA and COMPOUND 2 throughout the assay. Endpoints assessed assays were: cell pellet color evaluation (hemoglobinization assay); HBG and KLF1 RNA by RT-qPCR; CD235a-positive cell populations by flow cytometry (differentiation markers); and Growth and apoptosis by IncuCyte Zoom real-time imaging.
Cells were treated with vehicle, AZA alone, COMPOUND 2 alone, or the combination of AZA+COMPOUND 2. In the sequential schedule, cells were pre-treated with AZA for three days before addition of COMPOUND 2. In the concurrent schedule, cells were co-treated with AZA and COMPOUND 2 throughout the assay.

TF-1-IDH1^R132H cells = assay: growth and apoptosis by IncuCyte Zoom real-time imaging; format: cell-based; conditions: AZA 1 μM; for cell growth compared to the DMSO control: COMPOUND 2 0.1, 0.3 or 1.0 μM; for induction of apoptosis: late time points (>60 hrs), combination with 0.1 and 0.3 μM COMPOUND 2
Method: as §1
In order to track cell growth and death in real-time, a real-time analysis was performed using IncuCyte Zoom (FIG. 4).

[3] = cited from earlier work
TF1-IDH1^R132H cells [4] = assay: CD235a-positive cell populations by flow cytometry in EPO differentiation assay; format: cell-based; conditions: concurrent schedule
Text: as §1

[5] = solubility in fasted state simulated intestinal fluid (FASSIF); format: physicochemical; conditions: pH 6.1, fassif, thermodynamic from solid, pH of 6.1 at 4 hours
Method: In comparison, amorphous spray-dried dispersions have a solubility of about 0.05 mg/mL to about 0.50 mg/mL in FASSIF at 3 hours.

SMILES	hemoglobinization (red color of cell pellets) (TF1-IDH1^R132H cells [1])	increase in HBG gene expression (TF1-IDH1^R132H cells [2])	cell growth compared to the DMSO control (TF-1-IDH1^R132H cells)	induction of apoptosis (TF-1-IDH1^R132H cells)	solubility ([3]; in dimethylsulfoxide (DMSO))	also measured
Nc1ncn([C@@H]2O[C@H](CO)[C@@H](O)[C@H]2O)c(=O)n1 [AZA, 4-amino-1-β-D-ribofuranozyl-s-triazin-2(1H)-one]	little or no effect on cell pellet color	1 fold	slowed growth	increased apoptosis above the DMSO control	soluble	solubility ([3]; in acetone, ethanol and methyl ketone): insoluble; solubility ([3]; in ethanol/water (50/50), propylene glycol and polyethylene glycol): slightly soluble; solubility ([3]; in water, water-saturated octanol, 5% dextrose in water, N-methyl-2-pyrrolidone, normal saline and 5% Tween 80 in water): sparingly soluble
N#Cc1ccnc(N2C(=O)CC[C@H]2C(=O)N(c2cncc(F)c2)[C@H](C(=O)NC2CC(F)(F)C2)c2ccccc2Cl)c1 [COMPOUND 2, (S)-N-((S)-1-(2-chlorophenyl)-2-((3,3-difluorocyclobutyl)amino)-2-oxoethyl)-1-(4-cyanopyridin-2-yl)-N-(5-fluoropyridin-3-yl)-5-oxopyrrolidine-2-carboxamide]	increased hemoglobin production in a dose-dependent manner	25 fold	slightly promoted cell growth	no effect on induction of apoptosis	–	erythroid differentiation marker CD235a (Glycophorin A) expression (TF1-IDH1^R132H cells [4]): increased erythroid differentiation marker CD235a; RNA expression of differentiation marker KLF1 (TF1-IDH1^R132H cells [2]): Dose-dependent increases; RNA expression of differentiation marker HBG (TF1-IDH1^R132H cells [2]; combination with COMPOUND 2 0.2 μM): dose-dependent increases
Nc1ncn([C@H]2C[C@H](O)[C@@H](CO)O2)c(=O)n1 [Decitabine, 4-amino-1-(2-deoxy-β-D-erythro-pentofuranosyl)-1,3,5-triazin-2(1H)one]	–	–	–	–	soluble	solubility ([3]; in ethanol/water (50/50), methanol/water (50/50) and methanol): slightly soluble; solubility ([3]; in water): sparingly soluble
N#Cc1ccnc(N2C(=O)CC[C@H]2C(=O)N(c2cncc(F)c2)[C@H](C(=O)NC2CC(F)(F)C2)c2ccccc2Cl)c1 [Form 2, (S)-N-((S)-1-(2-chlorophenyl)-2-((3,3-difluorocyclobutyl)amino)-2-oxoethyl)-1-(4-cyanopyridin-2-yl)-N-(5-fluoropyridin-3-yl)-5-oxopyrrolidine-2-carboxamide]	–	–	–	–	–	solubility at 4 h [5]: ~18 µg/mL (≈ 30.9 µM)
